Source: patent US20190255022A1, “WOUND-HEALING AGENT” (NIPPON CHEMIPHAR CO., LTD., priority 2016, published 2019)
Marks after values point to notes of the source that are not given here.

Test system: wound in diabetes mouse (db/db mouse) model
Experiment: Effect of compound A on wound in diabetes mouse (db/db mouse) model
Type: in vivo
Conditions: for wound area ratio: 0.05 mL once a day, mean±standard error, n=8
Protocol: The compound A was weighed in the required amount, and polyethylene glycol 400 (PEG400) was added to the compound to prepare liquids having final concentrations of the compound of 0.001, 0.01, and 0.1 w/v %. In order to prepare ointments having final concentrations of the compound of 0.0005, 0.005, and 0.05 w/w %, PEG4000 melted by warming at 65° C. was added to the liquids, and the liquids were stirred until they solidified at room temperature to prepare ointments having concentrations of the compound of 0.0005, 0.005, and 0.05 w/w %.
Diabetes mice (db/db mice) were anesthetized with isoflurane, and a 1.5-cm square of skin including the back median line as the center axis of each mouse was removed with ophthalmic scissors. A polyurethane film was stuck so as to cover the skin-lacking wound part and surrounding parts to prepare the wound.
The administration was performed once a day at a volume of 0.05 mL. As for the administration method, the administration was performed with a disposable polypropylene injection syringe attached to a 23G needle by inserting the needle into a gap between the wound and the polyurethane film covering the wound part. On the day when the wound was produced and the days when the wound area was measured, the compound was administered to the wound part by using a disposable polypropylene injection syringe attached to a 23G needle before sticking the polyurethane film.
On days 14 to 20 of the administration (the day on which the administration was started is day 1 of the administration), the administration was performed by peeling off the polyurethane film under isoflurane anesthesia, cleaning the wound with absorbent cotton containing physiological saline, administering the ointment with a disposable polypropylene injection syringe, and then the polyurethane film was stuck on again.
On days 1, 4, 8, 12, 16, and 21 of the administration, the wound part was traced. That is, after the polyurethane film was removed (in the case of the day 1 of the administration, before the administration and sticking of the film), a plastic sheet was placed on the wound part, the contour of the wound part was traced on the plastic sheet (tracing was performed by using a felt pen so that the external periphery of the wound part would coincide with the internal periphery of the line drawn with the felt pen), and a copy of the sheet on which tracing was performed was used as the source of raw data. The area of the inside of the traced line (mm^2) was measured once using an area-line meter (PLANIX EX, Tamaya Technics Inc.) on the copy of the sheet on which tracing was performed. The results are expressed as ratio of change (%) calculated from the wound area (mm^2) of each measurement day, and the wound area (mm^2) of the day 1 of the wound creation (before administration).
Significant difference test was performed by using a commercial statistical analysis program (SAS System, SAS Institute Japan, Inc.). Statistical significance levels lower than 5% were considered to be significant, and the results are indicated as those of the level lower than 5% (*; p<0.05) and those of the level lower than 1% (**; p<0.01).
As for the test method, the multiple comparison of Dunnett's method was used for the comparison between the vehicle-administered group and compound A-administered groups.

Cc1cc2c(CCc3sc(-c4ccc(C(F)(F)F)cc4)nc3C(C)C)noc2cc1OCC(=O)O [compound A, [3-[2-[4-isopropyl-2-(4-trifluoromethyl)phenyl-5-thiazolyl]ethyl]-5-methyl-1,2-benzisoxazol-6-yl]oxyacetic acid]
wound area ratio (0.0005% compound A ointment, day 1 of administration): 100.0 ± 0.0%
wound area ratio (0.0005% compound A ointment, day 4 of administration): 96.9 ± 1.7%
wound area ratio (0.0005% compound A ointment, day 8 of administration): 95.2 ± 2.4%
wound area ratio (0.0005% compound A ointment, day 12 of administration): 82.9 ± 2.7%
wound area ratio (0.0005% compound A ointment, day 16 of administration): 73.4 ± 2.7%
wound area ratio (0.0005% compound A ointment, day 21 of administration): 67.6 ± 3.8%
wound area ratio (0.005% compound A ointment, day 1 of administration): 100.0 ± 0.0%
wound area ratio (0.005% compound A ointment, day 4 of administration): 97.2 ± 2.4%
wound area ratio (0.005% compound A ointment, day 8 of administration): 95.0 ± 2.2%
wound area ratio (0.005% compound A ointment, day 12 of administration): 84.1 ± 1.6%
wound area ratio (0.005% compound A ointment, day 16 of administration): 72.1 ± 1.7%
wound area ratio (0.005% compound A ointment, day 21 of administration): 69.1 ± 3.0%
wound area ratio (0.05% compound A ointment, day 1 of administration): 100.0 ± 0.0%
wound area ratio (0.05% compound A ointment, day 4 of administration): 96.0 ± 2.1%
wound area ratio (0.05% compound A ointment, day 8 of administration): 90.3 ± 2.6* %
wound area ratio (0.05% compound A ointment, day 12 of administration): 78.6 ± 1.6** %
wound area ratio (0.05% compound A ointment, day 16 of administration): 69.2 ± 2.1%
wound area ratio (0.05% compound A ointment, day 21 of administration): 65.5 ± 2.1%
wound area compared with the vehicle-administered group (0.05% compound A-administered group, day 8 and day 12 of the administration): significantly smaller
